Measurements taken from patent EP0520554A2, “C-21 hydroxylated FK-506 antagonist” (MERCK & CO. INC., priority 1991, dated 1992).

Test system: mouse T-cells activated with ionomycin + PMA
Assay: T-cell proliferation assay (ionomycin plus PMA induced T-cell stimulation, tritiated thymidine uptake)
Assay type: cell-based, C57B1/6 mice
Experimental: The principle of this assay is to measure the proliferation of mouse T lymphocytes stimulated with the combination of ionomycin plus PMA. […] Cells were pelleted by centrifugation at 1500 rpm for 8 minutes. Contaminating red cells were removed by treating the pellet with ammonium chloride lysing buffer (GIBCO) for 2 minutes at 4°C. Cold medium was added and cells were again centrifuged at 1500 rpm for 8 minutes. T lymphocytes were then isolated by separation of the cell suspension on nylon wool columns as follows: Nylon wool columns were prepared by packing approximately 4 grams of washed and dried nylon wool into 20 ml plastic syringes. The columns were sterilized by autoclaving at 250°F for 30 minutes. Nylon wool columns were wetted with warm (37°C) culture medium and rinsed with the same medium. Washed spleen cells resuspended in warm medium were slowly applied to the nylon wool. The columns were then incubated in an upright position at 37°C for 1 hour. Non-adherent T lymphocytes were eluted from the columns with warm culture medium and the cell suspensions were spun as above. […] Ionomycin was added at 250 ng/ml and PMA at 10 ng/ml. The cell suspension was immediately distributed into 96 well flat-bottom microculture plates (Costar) at 200 µl/well. […] The proliferation of T lymphocytes was assessed by measurement of tritiated thymidine incorporation. After 44 hours of culturing, the cells were pulse-labelled with 2 µCi/well of tritiated thymidine (NEN, Cambridge, MA). After another 4 hours of incubation, cultures were harvested on glass fiber filters using a multiple sample harvester. Radioactivity of filter discs corresponding to individual wells was measured by standard liquid scintillation counting methods (Betacounter).

Structure (SMILES)	inhibition at 0.125 µg/mL (Mus musculus, T-cell, sample 125 ng/ml, no FK-506, tritiated thymidine uptake, harvest at 48 hours) [%]	inhibition at 0.25 µg/mL (Mus musculus, T-cell, sample 250 ng/ml, no FK-506, tritiated thymidine uptake, harvest at 48 hours) [%]	inhibition at 0.5 µg/mL (Mus musculus, T-cell, sample 500 ng/ml, no FK-506, tritiated thymidine uptake, harvest at 48 hours) [%]	inhibition at 1 µg/mL (Mus musculus, T-cell, sample 1000 ng/ml, no FK-506, tritiated thymidine uptake, harvest at 48 hours) [%]	% Inhibition + FK-506 (1.2 nM) (sample 125 ng/ml in presence of FK-506 1.2 nM, harvest at 48 hours) [%]	% Inhibition + FK-506 (1.2 nM) (sample 250 ng/ml in presence of FK-506 1.2 nM, harvest at 48 hours) [%]	inhibition at 0.01 µg/mL (Mus musculus, T-cell) [%]	inhibition at 0.0012 µM (Mus musculus, T-cell, read-out: % Inhibition + FK-506 (1.2 nM)) [%]
CCC1(O)C=C(C)CC(C)CC(OC)C2OC(O)(C(=O)C(=O)N3CCCCC3C(=O)OC(C(C)=CC3CCC(O)C(OC)C3)C(C)C(O)CC1=O)C(C)CC2OC (centres unmarked) [21-OH-590, C-21 hydroxylated FR-900520]	0	0	0	0	94	63	–	–
C=CC[C@@H]1/C=C(\C)C[C@H](C)C[C@H](OC)[C@H]2O[C@@](O)(C(=O)C(=O)N3CCCC[C@H]3C(=O)O[C@H](/C(C)=C/[C@@H]3CC[C@@H](O)[C@H](OC)C3)[C@H](C)[C@@H](O)CC1=O)[C@H](C)C[C@@H]2OC [FK-506]	–	–	–	–	–	–	99	97
